Several values for one entry are separate records, joined by “and”; a condition that tells them apart may be missing. Equal entries are not always repeated.
Key:
Blood half-life = type: in vivo, mouse; settings: healthy athymic nude mice, tail vein
Protocol: The blood half-life was determined by measuring the activity in serial blood samplings. […] Measurements in counts per minute were calculated as the mean % ID/g. The blood half-life was calculated using Prism 6.0c (GraphPad Software, La Jolla, Calif.).
The blood half-life was calculated by measuring the activity of blood samples collected at different time points p.i. […] The collected blood was weighed and counted in a WIZARD^2 automatic γ-counter (PerkinElmer, Boston, Mass.). The blood half-life was calculated using Prism 6.0c (GraphPad Software, La Jolla, Calif.) using a two-phase decay least squares fitting method and expressed as % ID/g.

[1] = test system: U87 MG tumor bearing mice; assay: Biodistribution; type: in vivo, mouse; settings: i.v.
Protocol: Biodistribution experiments were conducted on female nude mice (8-10 weeks old and 20-25 g in weight, n=21) bearing U87 MG subcutaneous xenografts. The radiolabeled preparation (20-30 μCi of compound C-2d (^131I) in 200 μL of a solution 90% PBS 10% PEG300) was administrated via the lateral tail vein. To determine a suitable specific activity (to achieve a sufficiently high tumor to organ ratio), several specific activities were tested (5 mCi/μmol, 50 mCi/μmol, 250 mCi/μmol) in mice bearing U87 MG tumors. The compound was allowed to circulate for 2 h post injection at which time mice were sacrificed and organs were harvested (n=3). The radioactive content in tissue of interest (blood, tumor, muscle, bone, liver, spleen, kidney, heart, lung, pancreas, brain, skin, small intestine, large intestine, stomach, tail, thyroid and feces) was measured on a Wizard 2470 Automatic Gamma Counter, and the tissue-associated activity was calculated as the mean % ID/g using the following formula: [(activity in the target organ/grams of tissue)/injected dose]×100%.
After determining the optimal specific activity (of the three tested), a suitable time window for imaging was determined by testing the compound distribution in nude mice bearing U87 MG tumors at different time points. The compound was allowed to circulate for various times (1, 2, and 6 h), after which the mice were sacrificed (n=3).

[2] = 50 mCi/μmol, 2 h post injection
[3] = 250 mCi/μmol, 2 h post injection

alpha blood half-life (Blood half-life): 14.3 min
alpha blood half-life, share of phase (Blood half-life): 96.25%
beta blood half-life (Blood half-life): 94.6 min
beta blood half-life, share of phase (Blood half-life): 3.75%
weighted blood half-life (Blood half-life; 50 μCi): 17.1 min
% ID/g, Blood ([1]; 5 mCi/μmol, 2 h post injection): 5.88 % ID/g
% ID/g, Bone ([1]; 5 mCi/μmol, 2 h post injection): 0.14 % ID/g
% ID/g, Brain ([1]; 5 mCi/μmol, 2 h post injection): 0.02 % ID/g
% ID/g, Feces ([1]; 5 mCi/μmol, 2 h post injection): 6.23 % ID/g
% ID/g, Heart ([1]; 5 mCi/μmol, 2 h post injection): 0.26 % ID/g
% ID/g, Kidneys ([1]; 5 mCi/μmol, 2 h post injection): 1.08 % ID/g
% ID/g, Large intestine ([1]; 5 mCi/μmol, 2 h post injection): 5.43 % ID/g
% ID/g, Liver ([1]; 5 mCi/μmol, 2 h post injection): 3.14 % ID/g
% ID/g, Lung ([1]; 5 mCi/μmol, 2 h post injection): 0.55 % ID/g
% ID/g, Muscle ([1]; 5 mCi/μmol, 2 h post injection): 0.27 % ID/g
% ID/g, Pancreas ([1]; 5 mCi/μmol, 2 h post injection): 0.67 % ID/g
% ID/g, Skin ([1]; 5 mCi/μmol, 2 h post injection): 0.26 % ID/g
% ID/g, Small intestine ([1]; 5 mCi/μmol, 2 h post injection): 14.16 % ID/g
% ID/g, Spleen ([1]; 5 mCi/μmol, 2 h post injection): 0.60 % ID/g
% ID/g, Stomach ([1]; 5 mCi/μmol, 2 h post injection): 5.86 % ID/g
% ID/g, Tail ([1]; 5 mCi/μmol, 2 h post injection): 2.31 % ID/g
% ID/g, Thyroid ([1]; 5 mCi/μmol, 2 h post injection): 0.37 % ID/g
% ID/g, Tumor ([1]; 5 mCi/μmol, 2 h post injection): 0.32 % ID/g
% ID/g, Blood [1, 2]: 0.90 % ID/g
% ID/g, Bone [1, 2]: 0.04 % ID/g
% ID/g, Brain [1, 2]: 0.007 % ID/g
% ID/g, Feces [1, 2]: 3.75 % ID/g
% ID/g, Heart [1, 2]: 0.10 % ID/g
% ID/g, Kidneys [1, 2]: 0.35 % ID/g
% ID/g, Large intestine [1, 2]: 0.94 % ID/g
% ID/g, Liver [1, 2]: 1.02 % ID/g
% ID/g, Lung [1, 2]: 0.28 % ID/g
% ID/g, Muscle [1, 2]: 0.04 % ID/g
% ID/g, Pancreas [1, 2]: 0.42 % ID/g
% ID/g, Skin [1, 2]: 0.092 % ID/g
% ID/g, Small intestine [1, 2]: 7.17 % ID/g
% ID/g, Spleen [1, 2]: 0.15 % ID/g
% ID/g, Stomach [1, 2]: 1.90 % ID/g
% ID/g, Tail [1, 2]: 0.45 % ID/g
% ID/g, Thyroid [1, 2]: 0.14 % ID/g
% ID/g, Tumor [1, 2]: 0.17 % ID/g
% ID/g, Blood [1, 3]: 4.78 % ID/g
% ID/g, Bone [1, 3]: 0.09 % ID/g
% ID/g, Brain [1, 3]: 0.06 % ID/g
% ID/g, Feces [1, 3]: 67.25 % ID/g
% ID/g, Heart [1, 3]: 0.16 % ID/g
% ID/g, Kidneys [1, 3]: 0.58 % ID/g
% ID/g, Large intestine [1, 3]: 17.29 % ID/g
% ID/g, Liver [1, 3]: 2.17 % ID/g
% ID/g, Lung [1, 3]: 0.43 % ID/g
% ID/g, Muscle [1, 3]: 0.074 % ID/g
% ID/g, Pancreas [1, 3]: 0.27 % ID/g
% ID/g, Skin [1, 3]: 0.14 % ID/g
% ID/g, Small intestine [1, 3]: 7.55 % ID/g
% ID/g, Spleen [1, 3]: 0.43 % ID/g
% ID/g, Stomach [1, 3]: 1.25 % ID/g
% ID/g, Tail [1, 3]: 0.58 % ID/g
% ID/g, Thyroid [1, 3]: 0.20 % ID/g
% ID/g, Tumor [1, 3]: 0.18 % ID/g
% ID/g, Blood ([1]; 1 h post injection): 2.76 % ID/g
% ID/g, Bone ([1]; 1 h post injection): 0.19 % ID/g
% ID/g, Brain ([1]; 1 h post injection): 0.034 % ID/g
% ID/g, Feces ([1]; 1 h post injection): 7.31 % ID/g
% ID/g, Heart ([1]; 1 h post injection): 0.39 % ID/g
% ID/g, Kidneys ([1]; 1 h post injection): 1.60 % ID/g
% ID/g, Large intestine ([1]; 1 h post injection): 1.49 % ID/g
% ID/g, Liver ([1]; 1 h post injection): 4.61 % ID/g
% ID/g, Lung ([1]; 1 h post injection): 0.71 % ID/g
% ID/g, Muscle ([1]; 1 h post injection): 0.27 % ID/g
% ID/g, Pancreas ([1]; 1 h post injection): 0.74 % ID/g
% ID/g, Skin ([1]; 1 h post injection): 0.46 % ID/g
% ID/g, Small intestine ([1]; 1 h post injection): 13.70 % ID/g
% ID/g, Spleen ([1]; 1 h post injection): 0.64 % ID/g
% ID/g, Stomach ([1]; 1 h post injection): 1.88 % ID/g
% ID/g, Tail ([1]; 1 h post injection): 1.00 % ID/g
% ID/g, Thyroid ([1]; 1 h post injection): 0.56 % ID/g
% ID/g, Tumor ([1]; 1 h post injection): 0.50 % ID/g
% ID/g, Blood ([1]; 2 h post injection): 0.90 % ID/g
% ID/g, Bone ([1]; 2 h post injection): 0.044 % ID/g
% ID/g, Brain ([1]; 2 h post injection): 0.007±0.002 % ID/g and 0.007 % ID/g
% ID/g, Feces ([1]; 2 h post injection): 3.75 % ID/g
% ID/g, Heart ([1]; 2 h post injection): 0.10 % ID/g
% ID/g, Kidneys ([1]; 2 h post injection): 0.35 % ID/g
% ID/g, Large intestine ([1]; 2 h post injection): 0.94 % ID/g
% ID/g, Liver ([1]; 2 h post injection): 1.02 % ID/g
% ID/g, Lung ([1]; 2 h post injection): 0.28 % ID/g
% ID/g, Muscle ([1]; 2 h post injection): 0.04±0.02 % ID/g and 0.039 % ID/g
% ID/g, Pancreas ([1]; 2 h post injection): 0.42 % ID/g
% ID/g, Skin ([1]; 2 h post injection): 0.091 % ID/g
% ID/g, Small intestine ([1]; 2 h post injection): 7.16 % ID/g
% ID/g, Spleen ([1]; 2 h post injection): 0.15 % ID/g
% ID/g, Stomach ([1]; 2 h post injection): 1.90 % ID/g
% ID/g, Tail ([1]; 2 h post injection): 0.45 % ID/g
% ID/g, Thyroid ([1]; 2 h post injection): 0.14 % ID/g
% ID/g, Tumor ([1]; 2 h post injection): 0.17±0.06 % ID/g and 0.17 % ID/g
% ID/g, Blood ([1]; 6 h post injection): 0.34 % ID/g
% ID/g, Bone ([1]; 6 h post injection): 0.035 % ID/g
% ID/g, Brain ([1]; 6 h post injection): 0.008 % ID/g
% ID/g, Feces ([1]; 6 h post injection): 70.67 % ID/g
% ID/g, Heart ([1]; 6 h post injection): 0.075 % ID/g
% ID/g, Kidneys ([1]; 6 h post injection): 0.24 % ID/g
% ID/g, Large intestine ([1]; 6 h post injection): 1.33 % ID/g
% ID/g, Liver ([1]; 6 h post injection): 0.65 % ID/g
% ID/g, Lung ([1]; 6 h post injection): 0.12 % ID/g
% ID/g, Muscle ([1]; 6 h post injection): 0.023 % ID/g
% ID/g, Pancreas ([1]; 6 h post injection): 0.084 % ID/g
% ID/g, Skin ([1]; 6 h post injection): 0.072 % ID/g
% ID/g, Small intestine ([1]; 6 h post injection): 1.13 % ID/g
% ID/g, Spleen ([1]; 6 h post injection): 0.060 % ID/g
% ID/g, Stomach ([1]; 6 h post injection): 0.81 % ID/g
% ID/g, Tail ([1]; 6 h post injection): 0.31 % ID/g
% ID/g, Thyroid ([1]; 6 h post injection): 0.098 % ID/g
% ID/g, Tumor ([1]; 6 h post injection): 0.13 % ID/g
Structure (SMILES): O=C(c1ccc([131I])cc1)N1CCN(C(=O)c2cc(Cc3n[nH]c(=O)c4ccccc34)ccc2F)CC1 [C-2d (^131I)]

Source: patent US10512700B2, “Radiohalide-labeled targeted diagnostics and therapeutics” (Memorial Sloan Kettering Cancer Center, priority 2014, dated 2019)
